Structures can show the parent of a compound that is named as a salt.
Key:
mGluR5 receptor (human) = biological target: T1, mGluR5 receptor (human) (Homo sapiens, UniProt P41594); assay: Functional Ca2+ influx assay in CHO-hmGluR5 cells (DHPG 10 μM, FLIPR); format: cell-based
T1 construct: host or cells: CHO
Protocol: V. Functional Ca^2+ Influx Assay
20,000 CHO-hmGluR5 cells/well (Euroscreen, Gosselies, Belgium) are pipetted into 96-well plates (BD Biosciences, Heidelberg, Germany, Ref. 356640, clear bottom, 96-well, poly-D-lysine) and incubated overnight in HBSS buffer (Gibco 14025-050) with the following additions: 10% FCS (GIBCO, 10270-106) and doxycycline (BD Biosciences Clontech 631311 600 ng/ml).
For the functional study the cells were charged with 2 μM of Fluo-4 and 0.01% by vol. pluronic F127 (Molecular Probes Europe BV, Leiden, The Netherlands) in HBSS buffer (Hank's buffered saline solution, Gibco Invitrogen GmbH, Karlsruhe, Germany) with probenicide (Sigma P8761, […]) for 30 min. at 37° C.
The cells are then washed 3 times with washing buffer (HBSS buffer, Gibco No. 14025-050), with probenicide (Sigma P8761, 0.69 mg/ml) and then taken up with the same buffer ad 100 μl. After 15 min. the plates for determining the Ca^2+ measurements in the presence of DHPG ((S)-3,5-dihydroxyphenylglycine, Tocris Biotrend Chemikalien GmbH, Cologne, Germany, final DHPG concentration: 10 μM) and also in the presence or absence of test substances are transferred into a fluorometric imaging plate reader (FLIPR, Molecular Devices, Sunnyvale, Calif.).
The Ca^2+-dependent fluorescence is measured before and after the addition of test substances. The quantification occurs through the measurement of the highest fluorescence intensity over time. After the fluorescence base line has been recorded for 10 sec. 50 μl of test substance solution (different test substance concentrations in HBSS buffer with 1% DMSO and 0.02% Tween 20, Sigma) are added and the fluorescence signal is measured for 6 min. 50 μl of DHPG solution ((S)-3,5-dihydroxyphenylglycine, Tocris Biotrend Chemikalien GmbH, Cologne, Germany, final DHPG concentration: 10 μM) are then added and the influx of Ca^2+ is measured simultaneously for 60 sec. The final DMSO concentration amounts to 0.25% and the final Tween 20 content amounts to 0.005%. The data are analysed with Microsoft Excel and GraphPad Prism. The dose effect curves are calculated with non-linear regression and IC50 values determined. Each data point is determined 3 times and IC50 values are averaged from a minimum of 2 independent measurements. Ki values are calculated according to the following formula:
Ki=IC50/(1+(AGconc./EC50)).
AGconc.=10 μM; EC50 corresponds to the DHPG concentration necessary for the half-maximum influx of Ca^2+.

mGluR5 receptor = biological target: T2, mGluR5 receptor (Sus scrofa, UniProt I3LUI7); assay: [3H]-MPEP mGluR5 receptor binding assay (pig brain homogenate); settings: 5 nM [3H]-MPEP; for IC50: read-out: IC50 mGluR5 Receptor (pig) [^3H]-MPEP Bond
T2 construct: 450 μg of protein from brain homogenate with 5 nM ^3[H]-MPEP; from tissue; host or cells: pig brain halves without medulla, cerebellum and pons
T2 sequence (I3LUI7 19-1212): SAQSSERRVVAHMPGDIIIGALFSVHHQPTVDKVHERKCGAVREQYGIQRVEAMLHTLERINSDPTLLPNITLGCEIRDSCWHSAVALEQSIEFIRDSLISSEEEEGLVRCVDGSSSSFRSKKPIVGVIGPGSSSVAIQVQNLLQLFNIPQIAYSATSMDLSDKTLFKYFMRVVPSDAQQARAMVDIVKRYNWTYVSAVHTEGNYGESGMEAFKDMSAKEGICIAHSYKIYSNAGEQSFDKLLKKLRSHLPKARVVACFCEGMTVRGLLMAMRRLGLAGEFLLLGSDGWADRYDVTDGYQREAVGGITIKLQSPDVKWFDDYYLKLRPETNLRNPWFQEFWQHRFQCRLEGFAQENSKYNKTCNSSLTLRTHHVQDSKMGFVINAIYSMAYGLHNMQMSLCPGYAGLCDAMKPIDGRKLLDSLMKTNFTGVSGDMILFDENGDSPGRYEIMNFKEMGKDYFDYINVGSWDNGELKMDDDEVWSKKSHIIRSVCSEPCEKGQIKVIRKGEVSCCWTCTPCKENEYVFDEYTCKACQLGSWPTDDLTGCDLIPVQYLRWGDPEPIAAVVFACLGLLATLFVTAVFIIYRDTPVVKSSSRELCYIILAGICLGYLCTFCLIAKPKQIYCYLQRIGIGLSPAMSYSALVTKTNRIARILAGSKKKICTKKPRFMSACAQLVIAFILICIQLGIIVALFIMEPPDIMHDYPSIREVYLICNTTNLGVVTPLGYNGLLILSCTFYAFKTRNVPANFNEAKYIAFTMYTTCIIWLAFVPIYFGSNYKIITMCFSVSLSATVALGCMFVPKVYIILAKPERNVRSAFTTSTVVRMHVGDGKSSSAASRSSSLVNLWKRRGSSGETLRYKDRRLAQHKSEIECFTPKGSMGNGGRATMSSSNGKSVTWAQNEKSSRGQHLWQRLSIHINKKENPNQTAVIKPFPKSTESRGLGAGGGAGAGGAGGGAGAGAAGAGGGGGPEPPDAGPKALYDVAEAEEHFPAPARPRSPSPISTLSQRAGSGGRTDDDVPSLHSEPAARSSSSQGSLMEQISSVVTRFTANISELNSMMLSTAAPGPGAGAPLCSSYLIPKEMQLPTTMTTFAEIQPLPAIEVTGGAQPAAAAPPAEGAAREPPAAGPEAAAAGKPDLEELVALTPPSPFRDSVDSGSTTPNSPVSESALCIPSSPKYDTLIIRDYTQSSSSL
Outline: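 Radioligand displacement of 5 nM [3H]-MPEP from pig brain homogenate (450 μg protein; medulla, cerebellum and pons removed) in 20 mM Hepes pH 8.0. Compounds were tested at 10 μM, incubated 60 min at room temperature, then filtered and counted by scintillation. Non-specific binding was defined with 10 μM MPEP.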

Formalin test on rats = format: in vivo, rat
Protocol: IIa. Formalin Test on Rats:
The formalin test (Dubuisson, D. and Dennis, S. G., 1977, Pain, 4, 161-174) represents a model for acute as well as chronic pain. By a single formalin injection into the dorsal side of a rear paw a biphase nociceptive reaction is inducted in free-moving test animals that is detected by observation of three clearly distinguishable behavior patterns. The reaction is two-phase: phase I=immediate reaction (duration up to 10 min.; paw shaking, licking), phase 2=late reaction (after a resting phase; likewise paw shaking, licking; duration up to 60 min.). The first phase reflects a direct stimulation of the peripheral nocisensors with high spinal nociceptive input or glutamate release (acute pain phase); the second phase reflects a spinal and peripheral hypersensitisation (chronic pain phase). The chronic pain component (phase 2) was evaluated in the studies presented here.
Formalin is applied subcutaneously in a volume of 50 μl and a concentration of 5% into the dorsal side of the right rear paw of each animal. […] The specific changes in behavior such as lifting and shaking of the paw, shifting weight of the animal as well as biting and licking reactions are observed and recorded in the observation period of 21 to 27 min. after the formalin injection. […]

T1 sequence (P41594 21-1212): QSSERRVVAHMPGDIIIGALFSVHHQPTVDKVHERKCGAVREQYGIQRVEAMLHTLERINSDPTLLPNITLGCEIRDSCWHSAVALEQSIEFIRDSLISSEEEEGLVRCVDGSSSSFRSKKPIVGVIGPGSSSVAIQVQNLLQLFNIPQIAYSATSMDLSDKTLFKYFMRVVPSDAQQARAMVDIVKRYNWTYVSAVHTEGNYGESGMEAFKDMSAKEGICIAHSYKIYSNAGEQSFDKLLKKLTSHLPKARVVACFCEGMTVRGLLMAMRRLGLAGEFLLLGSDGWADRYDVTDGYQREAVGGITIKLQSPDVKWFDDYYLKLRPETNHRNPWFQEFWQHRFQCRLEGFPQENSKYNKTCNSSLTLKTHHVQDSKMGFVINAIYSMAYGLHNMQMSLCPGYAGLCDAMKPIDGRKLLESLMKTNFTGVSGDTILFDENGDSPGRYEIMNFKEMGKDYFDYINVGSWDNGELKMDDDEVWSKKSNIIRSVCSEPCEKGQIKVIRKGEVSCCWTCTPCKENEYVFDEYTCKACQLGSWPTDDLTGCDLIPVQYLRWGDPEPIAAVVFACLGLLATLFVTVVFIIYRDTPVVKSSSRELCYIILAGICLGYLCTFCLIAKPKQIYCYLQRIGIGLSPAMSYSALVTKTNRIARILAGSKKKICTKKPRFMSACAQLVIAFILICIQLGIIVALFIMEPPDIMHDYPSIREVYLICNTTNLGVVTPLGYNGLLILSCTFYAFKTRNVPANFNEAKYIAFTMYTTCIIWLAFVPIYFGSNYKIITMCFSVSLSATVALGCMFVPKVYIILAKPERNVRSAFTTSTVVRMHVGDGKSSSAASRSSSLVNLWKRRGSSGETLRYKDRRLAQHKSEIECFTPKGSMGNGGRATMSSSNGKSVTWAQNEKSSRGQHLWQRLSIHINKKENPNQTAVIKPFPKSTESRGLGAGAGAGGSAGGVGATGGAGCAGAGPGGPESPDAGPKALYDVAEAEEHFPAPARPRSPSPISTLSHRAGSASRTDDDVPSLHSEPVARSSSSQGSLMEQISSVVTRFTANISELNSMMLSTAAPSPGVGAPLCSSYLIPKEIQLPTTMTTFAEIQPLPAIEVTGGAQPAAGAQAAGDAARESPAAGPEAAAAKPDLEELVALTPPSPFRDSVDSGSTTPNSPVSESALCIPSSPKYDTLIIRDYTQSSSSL

## O=C(c1ccccc1)N(Cc1cccc(-c2ccc3ncnc(N4CCCC4)c3c2)c1)C1CC1 [Example 121, N-cyclopropyl-N-[3-(4-pyrrolidin-1-yl-quinazolin-6-yl)-benzyl]-benzamide]
mGluR5 receptor (human)
  Ki: 7.5 nM

## CC(C)(C)Nc1ncnc2ccc(-c3cccc(CN4C(=O)CCC4=O)c3)cc12 [Example 196, 1-[3-(4-tert-butylamino-quinazolin-6-yl)-benzyl]-pyrrolidine-2,5-dione hydrochloride]
mGluR5 receptor
  IC50: 90 nM
mGluR5 receptor (human)
  Ki: 4.7 nM

## CC(C)(C)Nc1ncnc2ccc(-c3ccc(F)c(CN(C(=O)CC#N)C4CC4)c3)cc12 [Example 201, N-[5-(4-tert-butylamino-quinazolin-6-yl)-2-fluoro-benzyl]-2-cyano-N-cyclopropyl-acetamide]
mGluR5 receptor
  IC50: 30 nM
mGluR5 receptor (human)
  Ki: 2.7 nM
Formalin test on rats; 2.15 mg/kg i.v.
  Formalin Test: 46% effect at

## CC(=O)N(Cc1cccc(-c2ccc3ncnc(NC4CC4)c3c2)c1)C(C)(C)C [Example 202, N-tert-butyl-N-[3-(4-cyclopropylamino-quinazolin-6-yl)-benzyl]-acetamide]
mGluR5 receptor; 10 μM compound, read-out: % Inhibition of mGluR5 Receptor (pig) [^3H]-MPEP Bond at 10 μM
  inhibition at 10 µM: 55%
mGluR5 receptor (human)
  Ki: 3.3 nM

## N#CCC(=O)N(Cc1cccc(-c2ccc3ncnc(NC4CC4)c3c2)c1)C1CC1 [Example 211, 2-cyano-N-cyclopropyl-N-[3-(4-cyclopropylamino-quinazolin-6-yl)-benzyl]-acetamide]
mGluR5 receptor
  IC50: 70 nM
mGluR5 receptor (human)
  Ki: 8.4 nM

## CC1CC(=O)N(Cc2cccc(-c3ccc4ncnc(NC5CC5)c4c3)c2)C1=O (centres unmarked) [Example 245, 1-[3-(4-cyclopropylamino-quinazolin-6-yl)-benzyl]-3-methyl-pyrrolidine-2,5-dione]
mGluR5 receptor
  IC50: 140 nM
mGluR5 receptor (human)
  Ki: 5.2 nM

## COc1ccc(CN(C2CC2)S(C)(=O)=O)cc1-c1ccc2ncnc(NC3CC3)c2c1 [Example 250, N-cyclopropyl-N-(3-(4-(cyclopropylamino)quinazolin-6-yl)-4-methoxybenzyl)methane sulfonamide]
mGluR5 receptor
  IC50: 120 nM
mGluR5 receptor (human)
  Ki: 5 nM

## O=C1CCC(=O)N1Cc1cccc(-c2ccc3ncnc(NC4CC4)c3c2)c1 [Example 258, 1-[3-(4-cyclopropylamino-quinazolin-6-yl)-benzyl]-pyrrolidine-2,5-dione]
mGluR5 receptor
  IC50: 50 nM
mGluR5 receptor (human)
  Ki: 3.9 nM

## CC(=O)N(Cc1cc(-c2ccc3ncnc(NC4CC4)c3c2)ccc1F)C1CC1 [Example 260, N-cyclopropyl-N-[5-(4-cyclopropylamino-quinazolin-6-yl)-2-fluoro-benzyl]-acetamide]
mGluR5 receptor
  IC50: 30 nM
mGluR5 receptor (human)
  Ki: 0.8 nM
Formalin test on rats; 10 mg/kg i.v.
  Formalin Test: 80% effect at

## COc1ccc(CN(C(C)=O)C2CC2)cc1-c1ccc2ncnc(NC3CC3)c2c1 [Example 261, N-cyclopropyl-N-[3-(4-cyclopropylamino-quinazolin-6-yl)-4-methoxy-benzyl]-acetamide]
mGluR5 receptor
  IC50: 200 nM
mGluR5 receptor (human)
  Ki: 39 nM

## CC(=O)N(Cc1cc(-c2ccc3ncnc(NC4CC4)c3c2)cs1)C1CC1 [Example 262, N-cyclopropyl-N-[4-(4-cyclopropylamino-quinazolin-6-yl)-thiophen-2-ylmethyl]-acetamide]
mGluR5 receptor
  IC50: 110 nM
mGluR5 receptor (human)
  Ki: 5.9 nM

## O=C(c1ccccc1)N(Cc1cc(-c2ccc3ncnc(NC4CC4)c3c2)ccc1F)C1CC1 [Example 269, N-cyclopropyl-N-(5-(4-(cyclopropylamino)quinazolin-6-yl)-2-fluorobenzyl)benzamide]
mGluR5 receptor
  IC50: 280 nM
mGluR5 receptor (human)
  Ki: 8 nM

## CS(=O)(=O)N(Cc1cccc(-c2ccc3ncnc(NC4CC4)c3c2)c1)C1CC1 [Example 270, N-cyclopropyl-N-(3-(4-(cyclopropylamino)quinazolin-6-yl)benzyl)methane sulfonamide]
mGluR5 receptor
  IC50: 280 nM
mGluR5 receptor (human)
  Ki: 12 nM

## CC(=O)N(Cc1cccc(-c2ccc3ncnc(NC4CC4)c3c2)c1)C1CC1 [Example 271, N-cyclopropyl-N-(3-(4-(cyclopropylamino)quinazolin-6-yl)benzyl)acetamide]
mGluR5 receptor
  IC50: 140 nM
mGluR5 receptor (human)
  Ki: 8.2 nM

## O=C(N(Cc1cccc(-c2ccc3ncnc(NC4CC4)c3c2)c1)C1CC1)C(F)(F)F [Example 273, N-cyclopropyl-N-(3-(4-(cyclopropylamino)quinazolin-6-yl)benzyl)-2,2,2-trifluoroacetamide]
mGluR5 receptor
  IC50: 30 nM
mGluR5 receptor (human)
  Ki: 1.7 nM

## CCOC(=O)N(Cc1cccc(-c2ccc3ncnc(NC4CC4)c3c2)c1)C1CC1 [Example 875, ethyl cyclopropyl(3-(4-(cyclopropylamino)quinazolin-6-yl)benzyl)carbamate]
mGluR5 receptor
  IC50: 40 nM
mGluR5 receptor (human)
  Ki: 51.1 nM

## O=C1CCC(=O)N1Cc1cccc(-c2cc3c(NC4CC4)ncnc3cc2F)c1 [Example 882, 1-(3-(4-(cyclopropylamino)-7-fluoroquinazolin-6-yl)benzyl)pyrrolidine-2,5-dione]
mGluR5 receptor
  IC50: 70 nM
mGluR5 receptor (human)
  Ki: 2.7 nM

From patent US20090069320A1, “Substituted 4-Amino-Quinazoline Compounds with Metabotropic Glutamate Receptor Regulating Activity and Uses Thereof” (Gruenenthal GmbH, priority 2006, published 2009)
